Source: patent US20120321584A1, “PROCESSES FOR PREPARING AMINE SALTS OF KMUP-3 AND USE THEREOF” (KAOHSIUNG MEDICAL UNIVERSITY, priority 2011, published 2012)

Key:
[1] = test system: RhoA; assay: RhoA expression in electrically-stimulated left atria, Western blotting; format: cell-based, guinea-pig; details: KMUP-3 0.1-10 μM
Protocol: (§1) Protein extraction and Western blotting analysis. Briefly, after incubation with test agents in an organ bath, isolated beating atrium was frozen and pulverized to a fine powder at the temperature of liquid nitrogen. Atrium powders were then homogenized in protein extraction reagent (Pierce Biotechnology, Inc., Rockford, Ill.) by sonication. The samples were sonicated 10 sec three times and centrifuged at 13,000 rpm at 4° C. for 30 min. The protein concentrations of supernatants were determined by using bovine serum albumin as the standard. The cell extracts were then boiled in a ratio of 4:1 with sample buffer (Tris 100 mM, pH 6.8; glycerol 20%, Sodium dodecyl sulfate (SDS) 4% and bromophenol blue 0.2%). Electrophoresis was performed using 10% SDS-PAGE and transferred to nitrocellulose membranes (Millipore Corp., Billerica, Mass.). […] The intensity of the bands was measured by densitometry. eNOS or phosphorylated eNOS were extracted from cell culture of neonatal myocytes, PA ring and aortic ring (2-3 mm) of rats and measured by Western blotting analysis.
(§2) PK, ROCKII and CIP-17 expression and pretreatment of beating left atrium. To examine whether KMUP-3 or KMUP-3 amine salt affects the protein expression in beating atrium, PKA, ROCKII, PKG and phosphorylated CIP-17 was determined by Western blotting, respectively. […]

[2] = test system: ROCKII; assay: ROCKII expression in electrically-stimulated left atria, Western blotting; format: cell-based, guinea-pig
Protocol: (§3) Protein extraction and Western blotting analysis. Briefly, after incubation with test agents in an organ bath, isolated beating atrium was frozen and pulverized to a fine powder at the temperature of liquid nitrogen. Atrium powders were then homogenized in protein extraction reagent (Pierce Biotechnology, Inc., Rockford, Ill.) by sonication. The samples were sonicated 10 sec three times and centrifuged at 13,000 rpm at 4° C. for 30 min. The protein concentrations of supernatants were determined by using bovine serum albumin as the standard. The cell extracts were then boiled in a ratio of 4:1 with sample buffer (Tris 100 mM, pH 6.8; glycerol 20%, Sodium dodecyl sulfate (SDS) 4% and bromophenol blue 0.2%). Electrophoresis was performed using 10% SDS-PAGE and transferred to nitrocellulose membranes (Millipore Corp., Billerica, Mass.). The membrane was blocked with Tris-buffered saline (TBS; 20 mM Tris and 137 mM NaCl, pH 7.6) containing 0.1% Tween 20 (TTBS) and 5% nonfat milk at room temperature for 1 h, washed with TTBS, and then incubated overnight at 4° C. in the appropriate primary antibody for PKARI, RhoA, ROCKII, p-CIP-17, CPI-17 and PKG1α1β. The membranes were washed in TTBS before being incubated with horseradish peroxidase-conjugated antibody against mouse, goat, or rabbit IgG for 1 hr. Membranes were then washed in TTBS and developed with the enhanced chemiluminescence for the detection of the specific antigen. The intensity of the bands was measured by densitometry. eNOS or phosphorylated eNOS were extracted from cell culture of neonatal myocytes, PA ring and aortic ring (2-3 mm) of rats and measured by Western blotting analysis.
as §2

[3] = test system: PKA; assay: PKA expression in electrically-stimulated left atria, Western blotting; format: cell-based, guinea-pig
Protocol: as §3, §2

[4] = test system: PKCα; assay: PKCα translocation of beating left atrium; format: cell-based, guinea-pig; details: KMUP-3 1 μM, left atrium cells
Protocol: To determine the effect of KMUP-3 or KMUP-3 amine salt on PKCa translocation, isolated left beating atrium was incubated with KMUP-3 or KMUP-3 amine salt for 30 minutes (0.1-10 μM). In brief, frozen left atrium was pulverized to a fine powder at the temperature of liquid nitrogen for preparation of cytosolic and membrane fractions. Isolated left atrium tissues were then homogenized by a sonicator (XL-2020, Heat Systems Ultrasonic, Plainview, N.Y., USA) at 4 in 1 ml of homogenization buffer containing 20 mM Tris-HCl (pH 7.5), 1 mM dithiothreitol (DTT), 5 mM EGTA, 2 mM EDTA, 0.5 mM PMSF, 20 μM leupeptin and 20 μM aprotinin. The cytosol fractions were obtained by collecting the supernatants after centrifuging the cells at 100,000×g for 45 minutes at 4. The pellets were resonicated in the homogenizing buffer with 1% Triton X-100, centrifuged again at 100,000×g for 45 minutes at 4, and the supernatants collected as membrane fractions. The extracts for cytosol and membrane fractions were denatured by heating at for 10 minutes in sampling buffer, and an aliquot containing 20 μg of total protein was subjected to a 10% SDS-polyacrylamide gel electrophoresis. […] Protein was detected with horseradish peroxidase (HRP) conjugated secondary antibody (BD Transduction Laboratories). […] The immunoreactive bands were detected by chemiluminescence (ECL) reagents (PerkinElmer Life Sciences, Inc).

[5] = test system: CPI-17; assay: CPI-17 phosphorylation in electrically stimulated beating left atria; format: cell-based, guinea-pig
Protocol: as §1, §2

[6] = test system: eNOS; assay: eNOS expression in neonatal myocytes, Western blotting; format: cell-based, rat; details: neonatal rat cardiomyocytes
Protocol: (§4) eNOS/p-NOS and cAMP/cGMP in neonatal myocytes. To determine the role of the NO/cGMP-pathway in heart, neonatal rat myocyte protein was extracted followed by Western blotting to measure the expression of eNOS, phosphorylated eNOS (p-eNOS), cAMP, and cGMP (FIG. 14 A-14 B and FIG. 15 A-15 B). KMUP-3 increased eNOS and p-eNOS in neonatal rat cardiomyocytes and the effect was reduced by L-NAME (100 μM)-pretreatment (FIG. 14A and FIG. 14B). KMUP-3 increased both cAMP and cGMP.
as §1, with “standard.” for “standard. The cell extracts were then boiled in a ratio of 4:1 with sample buffer (Tris 100 mM, pH 6.8; glycerol 20%, Sodium dodecyl sulfate (SDS) 4% and bromophenol blue 0.2%). Electrophoresis was performed using 10% SDS-PAGE and transferred to nitrocellulose membranes (Millipore Corp., Billerica, Mass.).”

[7] = test system: phosphorylated eNOS (p-eNOS); assay: Phosphorylated eNOS expression in neonatal myocytes, Western blotting; format: cell-based, rat; details: neonatal rat cardiomyocytes
Protocol: as §4
as §1, with “standard.” for “standard. The cell extracts were then boiled in a ratio of 4:1 with sample buffer (Tris 100 mM, pH 6.8; glycerol 20%, Sodium dodecyl sulfate (SDS) 4% and bromophenol blue 0.2%). Electrophoresis was performed using 10% SDS-PAGE and transferred to nitrocellulose membranes (Millipore Corp., Billerica, Mass.).”

[8] = test system: cAMP; assay: cAMP in neonatal myocytes; format: cell-based, rat
Protocol: as §4

[9] = test system: cGMP; assay: cGMP in neonatal myocytes; format: cell-based, rat
Protocol: as §4

[10] = test system: RhoA; assay: RhoA activation of neonatal myocytes, affinity precipitation assay; format: cell-based, rat
Protocol: RhoA activation was determined using an affinity precipitation assay, which binds only the active GTP-bound form of Rho. In brief, sub-confluent neonatal rat myocytes were grown to approximately 85-90% confluence, cells were exposed to KMUP-3 or KMUP-3 amine salt with 10% FBS for 90 min at 37 before addition of lysis buffer (25 mM HEPES, pH 7.5, 150 mM NaCl, 1% Igepal CA-630, 10 mM MgCl2, 1 mM EDTA and 10% glycerol, 1 Ag/ml aprotinin, 10 Ag/ml leupeptin and 1 mmol/l […]) for 15 min at 4, cell lysates were clarified by centrifugation at 13000 g at 4 for 10 min, and equal volume of lysates were incubated with agarose conjugated rhotekin-RBD for 45 min at 4, then washed three time with lysis buffer. Agarose beads were boiled in SDS-PAGE sample buffer to release active RhoA in samples were resolved on a 12% polyacrylamide gel followed by immunoblotting with anti-Rho A (clone 55).

Cn1c(=O)c2c(ncn2CCN2CCN(c3ccc([N+](=O)[O-])cc3)CC2)n(C)c1=O [KMUP-3, 7-[2-[4-(4-nitrobenzene)piperazinyl]ethyl]-1,3-dimethylxanthine]
RhoA expression [1]: significantly increased | ROCKII expression ([2]; FIG. 13A, concentration not given): significantly increased | ROCKII expression ([2]; KMUP-3 0.1-10 μM): significantly increased | PKA expression ([3]; FIG. 13B, concentration not given): significantly increased | PKA expression ([3]; KMUP-3 0.1-10 μM): significantly increased | Translocation of PKCα from cytosol to membrane [4]: significantly increased | Phosphorylation of CPI-17 [5]: concentration-dependently increased | eNOS expression [6]: increased | p-eNOS expression [7]: increased | cAMP [8]: increased | cGMP [9]: increased | cGMP increase compared with cAMP increase [9]: increased more than the former | Rho A activation (active GTP-bound form) [10]: increased
